Converted amounts (≈) assume the structure as drawn. “And” between values parts separate entries of the source, which are not always exact repeats. Equal entries are not always repeated. Where two headings read alike, the source gives them in different places.

Data set [1] concerns cyprid larvae of the barnacle, Balanus amphitrite Darwin. Put plainly: Barnacle settlement inhibition assay. Type of data set: in vivo. To be noted: for EC50: Amphibalanus amphitrite, read-out: EC50 (concentration which inhibited the settlement of 50% of the cyprid stage larvae); for efficacy as antifouling agents: in words. The source says: Mary's College in Tuticorin, India. The barnacles were crushed and the nauplius stage larvae were collected for culture to the cyprid stage following the method of Rittschof et al., J. Exp. Mar. Biol. Ecol., 82:131146 (1984). The cyprid is the stage at which the barnacle larva is competent to attach to surfaces. Upon attachment to a surface, the larva then undergoes metamorphosis into a barnacle. Barnacle settlement assays were undertaken using the method described previously by Rittschof et al., J. Chem. […] Briefly, Falcon 50×9 mm plastic petri dishes were filled with 5 ml of filtered seawater at salinity of 33-35 parts per thousand (ppt) and into which 3-day old cyprid stage larvae were added. The test compounds were introduced at various concentrations into the dishes containing seawater. The test compounds included (-)menthol and (-)[…]-3,8-diol. Controls were represented by those dishes in which no test compound were added. After incubation at 28° C. for 9 hours, the dishes were examined under a dissecting microscope to determine if there was any mortality. […] Settlement data were expressed as the percentage of the larvae attached to the bottom of the dish. The same settlement assay was used to determine the effective concentration of a number of different compounds of formula I, above. The effective concentration (EC50) is that concentration which inhibited the settlement of fifty percent (50%) of the cyprid stage of the barnacle larvae present in a test sample.

The test system of data set [2] is barnacle, Balanus amphitrite Darwin. To be noted: cited from earlier work.
The test system of data set [3] is barnacle, Balanus amphitrite communis. As to the kind of experiment: Painted iron panels submerged in the sea, barnacle attachment. To be noted: cuprous oxide-containing marine paint on iron panels, submerged 78 weeks; control paint = 100. The protocol: A floating platform was constructed using layers of bamboo and styrofoam floats. The platform was designed with holders to accommodate test panels measuring 4 inches×12 inches×0.25 inches.
A first experimental paint was prepared, containing a biocidally effective amount of cuprous oxide and no other biocide which was used as the control. To this composition was added a combination of 0.5%, by weight of (−)-trans-pmenthan-3,8-diol and 0.50 of (−)-menthol (Composition A). A second paint composition was prepared from the same marine paint vehicle containing cuprous oxide, to which was added 2% by weight of (−)-menthol (Composition B). A third formulation was made from the same cuprous oxide-containing marine paint vehicle, to which was added 2% by weight of (−)-trans-p-menthan-3,8-diol (Composition C).
Solid iron panels having the above-mentioned dimensions were painted with the paint formulations thus prepared, placed in the holders in the floating platform and submerged continuously near the center of Bitac Cove in San Dionisio Bay (Philippines) for a period of 78 weeks. The panels were examined for a few minutes every three months and immediately resubmerged after photography. After 78 weeks, the panels were removed and inspected. The numbers of barnacles attached to the panels were counted. […]

The test system of data set [4] is fouling phytoplanktons. As to the kind of experiment: Attachment of fouling phytoplanktons on painted submerged cement structures (seawater raceway). More on the design: key: +++++: highest amount of fouling attachments; −: no appreciable fouling attachments. To be noted: 5% by weight in paint on cement structure, 60 days in seawater raceway. The procedure:
A raceway measuring 100 feet long, 15 feet wide and 3 feet deep was constructed near the sea and lined with a plastic liner. Seawater was pumped directly from the sea and the Growth of naturally occurring plankton was induced by fertilization of the seawater. The total volume of the seawater was approximately 150 cubic meters. The water was circulated and aerated using a paddlewheel. Samples of the seawater were analyzed after 30 days and found to contain the following species of diatoms: Grammatophoria ocean ica, Nitzschia sp., A,inphora sp., Amphora bigilba, Thalassiothrix sp., Stauroneis sp., Licniophora sp., and Navicula sp. The seawater also contained the dinoflagellate, Peridhan sp., and the blue Green algae, Ocillatoria sp. and Rivularia sp.
A conventional paint formulation that was free of any tributyl tin compounds was used as a control. Paint formulations embodying the present invention were prepared by incorporating (−)-menthol and (−)-(trans)-p-menthan-3,8-diol at a dose concentration of 5 percent (5%) by weight of each compound into the same paint vehicle used for the control formulation, and these two formulations were painted on separate surfaces of cement structures placed in the raceway. The controls consisted of unpainted cement surface and surface painted with the control formulation. […]

Data set [5] deals with nauplii of the barnacle, Balauus annphitrite Darwin. As to the kind of experiment: Mortality of barnacle nauplii at the effective concentrations. To be noted: prolonged exposure at the compound's EC50 concentration.
Data set [6] relates to Flavobacterium sp. (F). As to the kind of experiment: Agar diffusion assay, marine bacteria associated with B. amphitrite. Type of data set: cell-based. To be noted: 0.004 mg/ml loaded on 6.5 mm disks. A general note: Agar diffusion results depend on both activity and mobility in agar.
The test system of data set [7] is Aeromonas sp. (Ael). Described as above. Type of data set: cell-based. The note with it: 0.004 mg/ml loaded on 6.5 mm disks.
Data set [8] concerns Vibrio sp. (V, & V,). As to the kind of experiment: Agar diffusion assay, marine bacteria associated with Perna sp. Type of data set: cell-based. The note with it: procedure as Example 2.
Data set [9] has as its system other bacterial strains associated with B. amphitrite. Put plainly: Agar diffusion assay, marine bacteria associated with B. amphitrite. Type of data set: cell-based. The note with it: 0.004 mg/ml loaded on 6.5 mm disks.
For data set [10], the system named is Nitzchia sp. Put plainly: In vitro cell growth inhibition assay, Nitzchia sp. To be noted: 0.00001-1.0 mg/ml, compared to the control. Type of data set: cell-based. The procedure: The in vitro cell growth inhibition assay used in this test is described in […], et al., J. Chem. Ecol., supra. Dunaliella tertiolecta is a marine micro algae cultured in the laboratory. Each test algae was inoculated from stock culture into flasks containing growth medium. (-)-menthol was added to the flask at various concentrations and the growth was monitored on each flask using a haemocytometer at 24-hour intervals up to the death phase of the culture. The test procedure employed was substantially the same as described in Example 4, except that Nitzchia sp. was substituted for D. tertiolecta.

For data set [11], the system named is other bacterial strains associated with Perna sp. As to the kind of experiment: Agar diffusion assay, marine bacteria associated with Perna sp. The note with it: procedure as Example 2.
Data set [12] relates to Dunaliella tertiolecta. Put plainly: In vitro cell growth inhibition assay, marine unicellular algae. To be noted: 0.00001-1.0 mg/ml, cell counts at 24-hour intervals. Type of data set: cell-based. The protocol: The in vitro cell growth inhibition assay used in this test is described in […], et al., J. Chem. Ecol., supra. Dunaliella tertiolecta is a marine micro algae cultured in the laboratory. Each test algae was inoculated from stock culture into flasks containing growth medium. (-)-menthol was added to the flask at various concentrations and the growth was monitored on each flask using a haemocytometer at 24-hour intervals up to the death phase of the culture.

Where [13] appears, read: settlement assay, cyprid larvae.

For `C=C(C)C1CCC(C)CC1O` (single isomer, unassigned; (-)) [(−)-isopulegol, 5-methyl-2-(1-methylethenyl)cyclohexanol], the EC50 in data set [1] (setting [13]) turned out to be 0.088 µg/mL (≈ 0.57 µM). In addition, the “efficacy as antifouling agents” value in [1] (settlement assay) is “superior efficacy”.

In the case of `CCC[CH2][Sn]([Cl])([CH2]CCC)[CH2]CCC` [TBT chloride], the “acute toxicity, estimated dose” value is reported as ~3.4 μg (microgram) per liter in data set [2] and around 0.0000034 grams/liter in [2] (same value restated).

As for `CC1CCC(C(C)C)C(OCC(O)CO)C1` (centres unmarked) [menthoxypropanediol, 3-[[5-methyl-2-(1-methylethyl)cyclohexyl]oxy]-1,2-propanediol], the EC50 in data set [1] (setting [13]) is 0.002 µg/mL (≈ 0.00868 µM). Also, the “efficacy as antifouling agents” value in data set [1] (settlement assay) is listed as “superior efficacy”.

As for `CC1CCC(C(C)C)C(O)C1` (single isomer, unassigned; (-)) [(−)-menthol], the “% Settlement” value in data set [3] stood at 16.1%. In addition, in data set [4], the “DEGREE OF BIOFOULING” value is recorded as “−”. In [5], the “mortality of barnacle nauplii” value is “did not show any mortality”. For the same compound, the figures for the “zone of inhibition, radius” value in data set [6], in [7] and in data set [8] were “greater than 10 mm”, “greater than 10 mm” and “greater than 8.5 mm”, respectively. Also, the “sensitivity of bacterial strains” value in data set [9] and in [11] was “moderately sensitive” in each case. In addition, in data set [10], the “inhibition of growth rate” value is “effective at all of the concentrations tested in inhibiting the growth rate”. Further, the EC50 in [1] was 4 µg/mL (≈ 25.6 µM). Besides, in [1] (each of five concentrations tested (concentrations not given), in order, last = highest, 9 hours at 28° C., control 59% (diol) / 58% (menthol)), the “settlement (percentage of the larvae attached to the bottom of the dish)” value was 39% and 34% and 26% and 23% and 21%. Besides, the inhibition of growth result in data set [12] is “effective in inhibiting the growth of this micro algae in a dose dependent manner”.

Take `CC1CCC(C(C)(C)O)C(O)C1` (single isomer, unassigned; (-)) [(−)-trans-p-menthan-3,8-diol]: in [3], the “% Settlement” value came out at 27.1%. In addition, in data set [4], the “DEGREE OF BIOFOULING” value is reported as “−”. In addition, the “mortality of barnacle nauplii” value in data set [5] is given as “did not show any mortality”. In addition, in data set [1], the EC50 was determined as 1 µg/mL (≈ 5.8 µM).

Regarding `CC1CCC(C(C)C)C(Cl)C1` (single isomer, unassigned; (-)) [(−)-menthyl chloride], the “mortality of barnacle nauplii” value in data set [5] was “did not show any mortality”. Besides, the EC50 in [1] was found to be 0.1 µg/mL.

On to `CC1CCC(C(C)C)C(=O)C1` (single isomer, unassigned; (-)) [(−)-menthone], for which the “mortality of barnacle nauplii” value in data set [5] is “did not show any mortality”. Moreover, the EC50 in data set [1] came out at 1 µg/mL (≈ 6.48 µM).

These data come from patent US20080095737A1, “NON-TOXIC COATING COMPOSITION, METHODS OF USE THEREOF AND ARTICLES PROTECTED FROM ATTACHMENT OF BIOFOULING ORGANISMS” (Symrise GmbH & Co. KG, priority 2000, published 2008).
